This test addresses T1, SHP2 (Homo sapiens, UniProt Q06124).
T1 sequence (Q06124 1-593): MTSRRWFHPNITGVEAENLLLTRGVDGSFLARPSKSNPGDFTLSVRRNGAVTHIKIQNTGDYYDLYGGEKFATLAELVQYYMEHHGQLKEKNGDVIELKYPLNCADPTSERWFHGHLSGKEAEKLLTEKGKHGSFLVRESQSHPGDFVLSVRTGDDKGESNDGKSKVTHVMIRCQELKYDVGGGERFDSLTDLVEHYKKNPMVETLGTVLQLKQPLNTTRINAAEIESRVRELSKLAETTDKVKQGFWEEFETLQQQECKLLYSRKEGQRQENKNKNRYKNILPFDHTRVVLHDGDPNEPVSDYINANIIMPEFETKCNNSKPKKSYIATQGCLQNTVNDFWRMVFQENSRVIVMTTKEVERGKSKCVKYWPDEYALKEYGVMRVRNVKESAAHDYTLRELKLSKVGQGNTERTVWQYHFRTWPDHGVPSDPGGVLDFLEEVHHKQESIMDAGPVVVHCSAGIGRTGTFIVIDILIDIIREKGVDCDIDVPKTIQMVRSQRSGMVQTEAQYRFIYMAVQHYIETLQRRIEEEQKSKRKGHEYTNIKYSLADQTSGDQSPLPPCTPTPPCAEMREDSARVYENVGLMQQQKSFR
Kind of test: Phosphatase Assay (Single Dose Inhibition). In kind it is biochemical. Conditions: compound at 0.02 μM (20nM); DiFMUP substrate 12 μM; SHP2 0.5 nM activated with dPEG8 peptide; DMSO control set to 100%; triplicate. How it is done:
Phosphatase Assay (Single Dose Inhibition) Assay Protocol: For single dose inhibition assays using 6,8-difluoro-4-methylumbelliferyl phosphate (DiFMUP) as a substrate, SHP2 samples (diluted to 0.5 nM in reaction buffer) were incubated with dPEG8 peptide for 30 min in reaction buffer[60 mM 3,3-dimethyl glutarate (pH7.2), 75 mM NaCl, 75 mM KCl, and 1 mM EDTA, 0.05% Tween 20, 2mM dithiothreitol (DTT) ] to active the PTP. DMSO [0.5% (v/v)] or compounds (20nM) were added to the mixture and incubated for 30 min at room temperature. Reactions were initiated by the addition of DiFMUP (12 μM; total reaction volume of 100 μL), and the fluorescence (excitation at 340 nm, emission at 450 nm) of the resulting solutions was measured on a 2104-0020 EnVision Xcite Multilabel Reader (PerkinElmer) after 30min. The experiment is carried out in triplicate. The value for the control sample (DMSO) was set to 100%, and the values for the compound-treated samples were expressed as activity relative to the control sample.
As usually defined, the inhibition is the percentage by which the read-out fell short of the control. A low value points to a response near the control. `Cn1c(N2CCC3(CC2)Cc2ncccc2[C@H]3N)nc2[nH]nc(-c3cccc(Cl)c3Cl)c2c1=O` [Example 36, (S)-6-(5-amino-5,7-dihydrospiro[cyclopenta[b]pyridine-6,4′-piperidin]-1′-yl)-3-(2,3-dichlorophenyl)-5-methyl-1,5-dihydro-4H-pyrazolo[3,4-d]pyrimidin-4-one] gave an inhibition at 0.02 µM of 88%.
`CCOC(=O)c1nc(Sc2ccnc(N)c2Cl)c(C)nc1N1CCC2(CC1)Cc1ccccc1[C@H]2N` [Example 5, ethyl (S)-3-(1-amino-1,3-dihydrospiro[indene-2,4′-piperidin]-1′-yl)-6-((2-amino-3-chloropyridin-4-yl)thio)-5-methylpyrazine-2-carboxylate] showed an inhibition at 0.02 µM of 84%.
Consider `Cc1nc(N2CCC3(CC2)Cc2ccccc2[C@H]3N)c(CO)nc1Sc1ccnc(N)c1Cl` [Example 24, (S)-(3-(1-amino-1,3-dihydrospiro[indene-2,4′-piperidin]-1′-yl)-6-((2-amino-3-chloropyridin-4-yl)thio)-5-methylpyrazin-2-yl)methanol], for which testing at 0.02 µM gave an inhibition of 87%.
The compound `N[C@@H]1c2cccnc2CC12CCN(c1nc3[nH]cc(-c4cccc(Cl)c4Cl)c3c(=O)[nH]1)CC2` [Example 39, (S)-2-(5-amino-5,7-dihydrospiro[cyclopenta[b]pyridine-6,4′-piperidin]-1′-yl)-5-(2,3-dichlorophenyl)-3,7-dihydro-4H-pyrrolo[2,3-d]pyrimidin-4-one] gave an inhibition at 0.02 µM of 78%.
In the case of `Cc1nc(N2CCC3(CC2)Cc2ccccc2[C@H]3N)c(C(=O)O)nc1-c1cccc(Cl)c1Cl` [Example 3, (S)-3-(1-amino-1,3-dihydrospiro[indene-2,4′-piperidin]-1′-yl)-6-(2,3-dichlorophenyl)-5-methylpyrazine-2-carboxylic acid], at 0.02 µM the inhibition was 81%.
On the same count and under the same terms, to `CC(C)Nc1nccc(Sc2cnc(N3CCC4(CC3)Cc3ccc(S(C)(=O)=O)cc3[C@H]4N)cn2)c1Cl` [Example 21, (S)-1′-(5-((3-chloro-2-(isopropylamino)pyridin-4-yl)thio)pyrazin-2-yl)-6-(methylsulfonyl)-1,3-dihydrospiro[indene-2,4′-piperidin]-1-amine] belongs 68%; to `N[C@@H]1c2ccccc2CC12CCN(c1cnc3c(N4CCCc5ncccc54)n[nH]c3n1)CC2` [Example 50, (S)-1′-(3-(3,4-dihydro-1,5-naphthyridin-1(2H)-yl)-1H-pyrazolo[3,4-b]pyrazin-6-yl)-1,3-dihydrospiro[indene-2,4′-piperidin]-1-amine], 86%.
Same read-out and setting: to `Cc1ccc(-c2n[nH]c3nc(N4CCC5(CC4)Cc4cc(F)c(F)c(F)c4[C@H]5N)n(C)c(=O)c23)s1` [Example 38, (S)-6-(1-amino-5,6,7-trifluoro-1,3-dihydrospiro[indene-2,4′-piperidin]-1′-yl)-5-methyl-3-(5-methylthiophen-2-yl)-1,5-dihydro-4H-pyrazolo[3,4-d]pyrimidin-4-one] belongs 53%; to `Cc1cccc(-c2ncc(N3CCC4(CC3)Cc3ccc(N)cc3[C@H]4N)nc2N)c1Cl` [Example 47, (S)-1′-(6-amino-5-(2-chloro-3-methylphenyl)pyrazin-2-yl)-1,3-dihydrospiro[indene-2,4′-piperidine]-1,6-diamine], 56%; to `N#Cc1nc(Sc2cccc(Cl)c2Cl)c(N)nc1N1CCC2(CC1)Cc1ncccc1[C@H]2N` [Example 30, (S)-5-amino-3-(5-amino-5,7-dihydrospiro[cyclopenta[b]pyridine-6,4′-piperidin]-1′-yl)-6-((2,3-dichlorophenyl)thio)pyrazine-2-carbonitrile], 80%.
Same read-out and setting: the figure for `Nc1nc(N2CCC3(CC2)Cc2ncccc2[C@H]3N)ncc1Sc1ccnc(N)c1Cl` [Example 8, (S)-1′-(4-amino-5-((2-amino-3-chloropyridin-4-yl)thio)pyrimidin-2-yl)-5,7-dihydrospiro[cyclopenta[b]pyridine-6,4′-piperidin]-5-amine] is 68%.
In turn, `Cc1nc(N2CCC3(CC2)Cc2ncccc2[C@H]3N)c(C#N)nc1-c1cccc(Cl)c1Cl` [Example 26, (S)-3-(5-amino-5,7-dihydrospiro[cyclopenta[b]pyridine-6,4′-piperidin]-1′-yl)-6-(2,3-dichlorophenyl)-5-methylpyrazine-2-carbonitrile] displayed an inhibition at 0.02 µM of 67%.
For the compound `Nc1nc(N2CCC3(CC2)Cc2ncccc2[C@H]3N)c(Br)nc1Sc1cccc(Cl)c1Cl` [Example 29, (S)-1′-(6-amino-3-bromo-5-((2,3-dichlorophenyl)thio)pyrazin-2-yl)-5,7-dihydrospiro[cyclopenta[b]pyridine-6,4′-piperidin]-5-amine], the inhibition at 0.02 µM worked out at 68%.
`COc1nccc(Sc2cnc(N3CCC4(CC3)Cc3ccc(SC)cc3[C@H]4N)cn2)c1Cl` [Example 19, (S)-1′-(5-((3-chloro-2-methoxypyridin-4-yl)thio)pyrazin-2-yl)-6-(methylthio)-1,3-dihydrospiro[indene-2,4′-piperidin]-1-amine] displayed an inhibition at 0.02 µM of 61%.
As for “ethyl (S)-3-(1-amino-1,3-dihydrospiro[indene-2,4′-piperidin]-1′-yl)-6-(2,3-dichlorophenyl)-5--2-carboxylate [Example 1]”, the “SHP2 inhibition(%)” value is reported as 82%.
With `Cc1nc(N2CCC3(CC2)Cc2ccccc2[C@H]3N)c(CO)nc1-c1cccc(Cl)c1Cl` [Example 23, (S)-(3-(1-amino-1,3-dihydrospiro[indene-2,4′-piperidin]-1′-yl)-6-(2,3-dichlorophenyl)-5-methylpyrazin-2-yl)methanol], the inhibition at 0.02 µM was 85%.
Same read-out and setting: to `Cc1nc(N2CCC3(CC2)Cc2ccccc2[C@H]3N)cnc1Sc1ccnc(N)c1Cl` [Example 6, (S)-1′-(5-((2-amino-3-chloropyridin-4-yl)thio)-6-methylpyrazin-2-yl)-1,3-dihydrospiro[indene-2,4′-piperidin]-1-amine] belongs 89%.
Still for that read-out and setting: to `Cn1c(N2CCC3(CC2)Cc2ccccc2[C@H]3N)nc(N)c(Sc2ccnc(N)c2Cl)c1=O` [Example 40] belongs 68%; to `Cn1c(N2CCC3(CC2)Cc2ccc(F)cc2[C@H]3N)nc2[nH]nc(-c3cccc(Cl)c3Cl)c2c1=O` [Example 37, (S)-6-(1-amino-6-fluoro-1,3-dihydrospiro[indene-2,4′-piperidin]-1′-yl)-3-(2,3-dichlorophenyl)-5-methyl-1,5-dihydro-4H-pyrazolo[3,4-d]pyrimidin-4-one], 68%.
As to `N#Cc1cnc2c(c1)[C@@H](N)C1(CCN(c3ccc(Sc4ccnc(N)c4Cl)cn3)CC1)C2` [Example 15, (S)-5-amino-1′-(5-((2-amino-3-chloropyridin-4-yl)thio)pyridin-2-yl)-5,7-dihydrospiro[cyclopenta[b]pyridine-6,4′-piperidine]-3-carbonitrile], at 0.02 µM the inhibition was 64%.
The same measure, in the same setting: to `Cc1nc(N2CCC3(CC2)Cc2ncccc2[C@H]3N)cnc1-c1cccc(Cl)c1Cl` [Example 2, (S)-1′-(5-(2,3-dichlorophenyl)-6-methylpyrazin-2-yl)-5,7-dihydrospiro[cyclopenta[b]pyridine-6,4′-piperidin]-5-amine] belongs 80%; to `Cc1cccc(-c2ncc(N3CCC4(CC3)Cc3ccc(Br)cc3[C@H]4N)nc2N)c1Cl` [Example 45, (S)-1′-(6-amino-5-(2-chloro-3-methylphenyl)pyrazin-2-yl)-6-bromo-1,3-dihydrospiro[indene-2,4′-piperidin]-1-amine], 78%; to `Cc1nc(N2CCC3(CC2)Cc2ncccc2[C@H]3N)c(O)nc1-c1cccc(Cl)c1Cl` [Example 28, (S)-3-(5-amino-5,7-dihydrospiro[cyclopenta[b]pyridine-6,4′-piperidin]-1′-yl)-6-(2,3-dichlorophenyl)-5-methylpyrazin-2-ol], 74%.
On the same count and under the same terms, the figure for `Nc1nccc(Sc2ccc(N3CCC4(CC3)Cc3ncccc3[C@H]4N)cn2)c1Cl` [Example 33, (S)-1′-(6-((2-amino-3-chloropyridin-4-yl)thio)pyridin-3-yl)-5,7-dihydrospiro[cyclopenta[b]pyridine-6,4′-piperidin]-5-amine] is 70%; for `Cc1nc(N2CCC3(CC2)Cc2ncccc2[C@H]3N)c(Br)nc1-c1cccc(Cl)c1Cl` [Example 25, (S)-1′-(3-bromo-5-(2,3-dichlorophenyl)-6-methylpyrazin-2-yl)-5,7-dihydrospiro[cyclopenta[b]pyridine-6,4′-piperidin]-5-amine] it is 78%.

For the origin of these results see patent US20210393623A1 (Jacobio Pharmaceuticals Co., Ltd., priority 2018, published 2021).
